In one experiment the target is T1, S1P4 (Homo sapiens, UniProt O95977).
T1 sequence (O95977 1-384): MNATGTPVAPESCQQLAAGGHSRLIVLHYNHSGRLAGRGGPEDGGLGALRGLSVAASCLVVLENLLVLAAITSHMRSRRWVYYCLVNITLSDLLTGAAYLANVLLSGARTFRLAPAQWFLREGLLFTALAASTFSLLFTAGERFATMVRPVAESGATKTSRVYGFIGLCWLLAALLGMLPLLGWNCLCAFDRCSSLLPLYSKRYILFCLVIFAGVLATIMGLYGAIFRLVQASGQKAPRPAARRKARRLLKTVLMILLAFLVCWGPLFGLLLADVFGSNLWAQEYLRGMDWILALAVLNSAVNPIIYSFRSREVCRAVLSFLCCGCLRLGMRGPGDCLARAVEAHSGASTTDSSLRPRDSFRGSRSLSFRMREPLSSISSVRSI
The experiment can be described thus: S1P receptor activity assay (calcium flux, FLIPR TETRA), S1P4. The class given is cell-based. The source says: (§1) Agonist percentage activation determinations were obtained by assaying sample compounds and referencing the Emax control for each receptor profiled. Antagonist percentage inhibition determinations were obtained by assaying sample compounds and referencing the control EC80 wells for each receptor profiled. The samples were run using a “Single Addition” assay protocol for the agonist and antagonist assay run. The protocol design was as follows:
(§2) Master stock solution: Unless specified otherwise, all sample compounds were diluted in 100% anhydrous DMSO including all serial dilutions. All control wells contained identical solvent final concentrations as did the sample compound wells.
(§3) Compound plate for assay: The sample compounds were transferred from a master stock solution into a daughter plate that was used in the assay. Each sample compound was diluted into assay buffer (1×HBSS with 20 mM HEPES and 2.5 mM Probenecid) at an appropriate concentration to obtain final concentrations.
(§4) Sample compounds were plated in an eight-point, four-fold dilution series in duplicate with a top concentration of 10 μM. The concentrations described here reflect the final concentration of the compounds during the antagonist assay.
(§5) Reference agonists were handled as mentioned above serving as assay control. The reference agonists were handled as described above for Emax.
(§6) Assay was read for 180 seconds using the […] (This assay run added sample compounds and reference agonist to respective wells). At the completion of the first “Single Addition” assay run, assay plate was removed from the […] and placed at 25° C. for seven (7) minutes.
(§7) Using the EC80 values determined during the agonist assay, stimulated all pre-incubated sample compound and reference antagonist (if applicable) wells with EC80 of reference agonist. Read for 180 seconds using the […] (This assay added reference agonist to respective wells—then fluorescence measurements were collected to calculate percentage inhibition values).
(§8) All plates were subjected to appropriate baseline corrections. Once baseline corrections were processed, maximum fluorescence values were exported and data manipulated to calculate percentage activation, percentage inhibition and Z′.

A further experiment concerns the target S1P5 (Homo sapiens, UniProt Q9H228). Put plainly: S1P receptor activity assay (calcium flux, FLIPR TETRA), S1P5. It counts as cell-based. Particulars: calcium flux, top concentration 10 μM; read-out: IC50 for S1P5.
From the text: as §1, §2, §3, §4, §5, §6, §7, §8

Another experiment addresses T2, Human ATX protein (Homo sapiens, UniProt Q13822).
T2 construct: made in house
Put plainly: Autotaxin (ATX) FRET assay with FS-3 substrate. The class given is biochemical. Particulars: FS-3 2 μM, ATX 1.0 μg/mL, 2 hours at room temperature; read-out: IC50 (ATX). The source says: ATX (Autotaxin) is a 125 KDa glycoprotein with lysophospholipase D (LPLD) activity that generates the bioactive lipid lysophosphatidic acid (LPA) from lysophosphatidylcholine (LPC). The ATX biochemical assay utilizes a FRET (fluorescence resonance energy transfer) technology platform. […] ATX catalyzes the hydrolysis of the substrate which separates the dabsyl quencher from the fluorescein reporter, which becomes fluorescent. The reaction is monitored by a SpectraMax M5 (Molecular Devices, Sunnyvale, Calif.) with at excitation wavelength 485 nm and emission wavelength 535 nm.
Fatty acid free-BSA (Sigma A8806): 10 mg/mL in H2O, stored at 4° C.
2×ATX assay buffer: 100 mM Tris, 280 mM NaCl, 10 mM KCl, 2 mM CaCl2, 2 mM MgCl2, pH 7.4.
Human ATX protein: expressed and purified in house. Stored at −80° C.
Substrate FS-3 (Echelon, L-2000): 100 μg in 77.74 μL H2O (1 mM stock), stored at −20° C.
Compound dilution—All compounds were provided at 10 mM in 100% DMSO. In the first well, 2 μL of 10 mM compound was added to 78 μL of DMSO (1:40 dilution). In subsequent wells 3-fold dilution (total 10 dilutions) were performed.
1×ATX assay buffer was made up with a final concentration of 1 mg/mL fatty acid free-BSA using 2×ATX assay buffer, 10 mg/ml fatty acid free-BSA and ddH2O.
38 μL was added per well to the assay plate. The final concentration of ATX in the reaction as 1.0 μg/mL.
2 μL per well of compounds was transferred to provide the desired concentration. The plate was centrifuged, then incubated at room temperature for 30 minutes on the shaker.
FS-3 was diluted with 1×ATX assay buffer to a concentration of FS-3 of 10 μM (5×). Then, 10 μL was added per well to the assay plate. The final concentration of FS-3 in the reaction was 2 μM. The plate was centrifuged. The plate was kept shaking at room temperature for 2 hours. Because FS-3 substrate is light sensitive, plates were kept covered and protected from light.

In a further experiment the target is S1P1 (Homo sapiens, UniProt P21453). Put plainly: S1P receptor activity assay (calcium flux, FLIPR TETRA), S1P1. The class given is cell-based.
From the text: as §1, §2, §3, §4, §5, §6, §7, §8
In general terms: Calcium assays in cells follow changes in intracellular calcium, usually with a dye or a luminescent sensor.

The mark [1] stands for this setting: calcium flux, top concentration 10 μM, the >5 μM sentence says only 'for S1P4', read-out: IC50 for S1P4 agonist activity.
Where [2] appears, read: calcium flux, top concentration 10 μM, the >5 μM sentence says only 'for S1P1', read-out: IC50 for S1P1 agonist activity.

pIC50: −log10 of the molar value. Like-named read-outs stand apart in the source and are kept apart here.

S1P1, sequence (P21453 whole entry): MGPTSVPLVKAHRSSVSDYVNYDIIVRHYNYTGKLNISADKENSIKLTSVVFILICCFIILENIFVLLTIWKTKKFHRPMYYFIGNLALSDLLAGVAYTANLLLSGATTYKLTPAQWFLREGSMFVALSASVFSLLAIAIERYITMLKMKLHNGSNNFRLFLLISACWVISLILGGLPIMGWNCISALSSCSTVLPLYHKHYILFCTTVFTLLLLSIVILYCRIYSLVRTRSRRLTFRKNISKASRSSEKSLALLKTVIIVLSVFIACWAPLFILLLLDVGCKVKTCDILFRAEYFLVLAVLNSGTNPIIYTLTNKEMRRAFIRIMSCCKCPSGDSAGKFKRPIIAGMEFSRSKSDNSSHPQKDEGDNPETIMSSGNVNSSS
S1P5, sequence (Q9H228 whole entry): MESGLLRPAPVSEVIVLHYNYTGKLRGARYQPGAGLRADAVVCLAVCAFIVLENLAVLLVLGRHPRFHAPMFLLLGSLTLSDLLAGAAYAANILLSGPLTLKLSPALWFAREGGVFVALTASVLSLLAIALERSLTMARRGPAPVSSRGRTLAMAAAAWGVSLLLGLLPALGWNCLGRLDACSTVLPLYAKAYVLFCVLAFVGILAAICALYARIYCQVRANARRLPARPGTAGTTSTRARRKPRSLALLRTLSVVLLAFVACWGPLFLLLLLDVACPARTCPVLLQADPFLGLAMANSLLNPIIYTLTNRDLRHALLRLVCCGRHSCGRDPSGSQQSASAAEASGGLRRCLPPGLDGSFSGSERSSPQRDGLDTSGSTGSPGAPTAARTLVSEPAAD

A word on the pIC50: it is −log10 of the IC50, conventionally taken in molar units. In the case of `CC(C)(C)[C@H]1CC[C@H](Oc2cccc(C3CCCN(CCC(=O)O)C3)c2)CC1` (stereo partly drawn) [Example 7, 3-(3-(3-((trans-4-(tert-Butyl)cyclohexyl)oxy)phenyl)piperidin-1-yl)propanoic acid], the pIC50 was ≥ 5.70 at S1P4 (setting [1]), < 5.30 at S1P5 and 5.00 to 5.30 on Human ATX protein.

As to `CC(C)(C)[C@H]1CC[C@H](Oc2ccc(N3CCN(CC45CCC(C(=O)O)(CC4)CC5)CC3)cc2)CC1` [Example 19, 4-((4-(4-((trans-4-(tert-Butyl)cyclohexyl)oxy)phenyl)piperazin-1-yl)methyl)bicyclo[2.2.2]octane-1-carboxylic acid], the pIC50 at S1P1 (setting [2]) is < 5.30; on S1P4 (setting [1]) it was ≥ 5.70; on S1P5, < 5.30; at Human ATX protein, ≥ 5.30.

Take `CCCCCCCCOc1cccc(C2CCCN(CCC(=O)O)C2)c1` (centres unmarked) [Example 5, 3-(3-(3-(Octyloxy)phenyl)piperidin-1-yl)propanoic acid]: the negative-log IC50 (pIC50) on S1P1 (setting [2]) was < 5.30; at S1P4 (setting [1]) it was ≥ 5.70; on S1P5, < 5.30; on Human ATX protein it was 5.00 to 5.30.

Consider `CC(C)(C)[C@H]1CC[C@@H](Oc2ccc(C3CCCN(CCCC(=O)O)C3)cc2)CC1` (stereo in doubt) [Example 4, 4-(3-(4-(cis-4-tert-Butylcyclohexyloxy)phenyl)piperidin-1-yl)butanoic acid], for which the negative-log IC50 (pIC50) at S1P1 (setting [2]) was < 5.30; at S1P4 (setting [1]), < 5.30; on S1P5 it was < 5.30; at Human ATX protein, 5.00 to 5.30.

For the molecule `CC(C)(C)[C@H]1CC[C@H](Oc2ccc(C3CCN(CCC(=O)O)C3)cc2)CC1` (stereo partly drawn) [Example 23, 3-(3-(4-((trans-4-(tert-Butyl)cyclohexyl)oxy)phenyl)pyrrolidin-1-yl)propanoic acid], the pIC50 on S1P1 (setting [2]) is < 5.30; on S1P4 (setting [1]) it was ≥ 5.70; on S1P5, < 5.30.

On to `CC(C)(C)[C@H]1CC[C@H](Oc2ccc(NC3CCCN(CCC(=O)O)C3)cc2)CC1` (relative stereo) [Example 13, 3-(3-((4-((trans-4-(tert-Butyl)cyclohexyl)oxy)phenyl)amino)piperidin-1-yl)propanoic acid], for which the negative logarithm of the IC50 (pIC50) at S1P1 (setting [2]) was < 5.30; on S1P4 (setting [1]) it was 5.30 to 5.70; at Human ATX protein, < 5.00.

Turning to `CCCCCCCCOc1ccc(C2CCCN(CCCC(=O)O)C2)cc1` (centres unmarked) [Example 2, 4-(3-(4-(Octyloxy)phenyl)piperidin-1-yl)butanoic acid], the pIC50 is < 5.30 on S1P1 (setting [2]), ≥ 5.70 at S1P4 (setting [1]) and < 5.30 on S1P5.

Take `CC[C@H]1CC[C@@H](Oc2ccc(C3=CCN(CCCCC(=O)O)CC3)cc2)CC1` [Example 37, 5-(4-(4-((cis-4-Ethylcyclohexyl)oxy)phenyl)-5,6-dihydropyridin-1(2H)-yl)pentanoic acid]: the negative logarithm of the IC50 (pIC50) on S1P1 is ≥ 5.70; at S1P4, ≥ 5.70; at S1P5 it was 5.30 to 5.70; on Human ATX protein it was ≥ 5.30.

As to `CC[C@H]1CC[C@H](Oc2ccc(C3CCN(CCCC(=O)O)CC3)cc2)CC1` [Example 30, 4-(4-(4-((trans-4-Ethylcyclohexyl)oxy)phenyl)piperidin-1-yl)butanoic acid], the negative-log IC50 (pIC50) at S1P1 (setting [2]) was < 5.30; at S1P4 (setting [1]), ≥ 5.70; on S1P5 it was < 5.30; on Human ATX protein, < 5.00.

For the molecule `CCCCCCCCOc1ccc(C2CCCN(CCC(=O)O)C2)cc1` (centres unmarked) [Example 1, 3-(3-(4-(Octyloxy)phenyl)piperidin-1-yl)propanoic acid], the pIC50 at S1P1 (setting [2]), at S1P4 (setting [1]) and at S1P5 was < 5.30 throughout.

Turning to `CC(C)(C)[C@H]1CC[C@H](Oc2ccc(C3CCCN(C4CCC(C(=O)O)CC4)C3)cc2)CC1` (stereo partly drawn) [Example 25, 4-(3-(4-((trans-4-(tert-Butyl)cyclohexyl)oxy)phenyl)piperidin-1-yl)cyclohexanecarboxylic acid], the negative logarithm of the IC50 (pIC50) was < 5.30 at S1P1 (setting [2]) and ≥ 5.70 at S1P4 (setting [1]).

For the molecule `CC(C)(C)[C@H]1CC[C@H](Oc2ccc(C3CCN(CCCC(=O)O)C3)cc2)CC1` (stereo partly drawn) [Example 24, 4-(3-(4-((trans-4-(tert-Butyl)cyclohexyl)oxy)phenyl)pyrrolidin-1-yl)butanoic acid], the negative logarithm of the IC50 (pIC50) at S1P1 (setting [2]) is < 5.30; on S1P4 (setting [1]), ≥ 5.70; at S1P5 it was < 5.30.

On to `CC(C)(C)[C@H]1CC[C@H](Oc2ccc(C3=CCN(CCCCC(=O)O)CC3)cc2)CC1` [Example 49, 5-(4-(4-((trans-4-(tert-Butyl)cyclohexyl)oxy)phenyl)-5,6-dihydropyridin-1(2H)-yl)pentanoic acid], for which the results for the pIC50 on S1P1, at S1P4 and at S1P5 were < 5.30, ≥ 5.70 and < 5.30, respectively.

Turning to `CC(C)(C)[C@H]1CC[C@H](Oc2cccc(C3CCCN(CCCC(=O)O)C3)c2)CC1` (stereo partly drawn) [Example 8, 4-(3-(3-((trans-4-(tert-Butyl)cyclohexyl)oxy)phenyl)piperidin-1-yl)butanoic acid], the pIC50 was ≥ 5.70 on S1P4 (setting [1]), < 5.30 at S1P5 and 5.00 to 5.30 on Human ATX protein.

As for `CC(C)(C)[C@H]1CC[C@H](Oc2ccc(C3CCN(CCCCC(=O)O)CC3)cc2)CC1` [Example 50, 5-(4-(4-((trans-4-(tert-Butyl)cyclohexyl)oxy)phenyl)piperidin-1-yl)pentanoic acid], the negative-log IC50 (pIC50) on S1P1 (setting [2]) is < 5.30; on S1P4 (setting [1]), ≥ 5.30; on S1P5 it was < 5.30.

For `CCCCCCCCOc1ccc(N2CCN(CCC(=O)O)CC2)nc1` [Example 22, 3-(4-(5-(Octyloxy)pyridin-2-yl)piperazin-1-yl)propanoic acid], the pIC50 on S1P1 (setting [2]), at S1P4 (setting [1]) and on S1P5 was < 5.30 in each case.

In the case of `CC(C)(C)[C@H]1CC[C@H](Oc2ccc(C3CCCN(CCC(=O)O)C3)cc2)CC1` (stereo partly drawn) [Example 3, 3-(3-(4-(trans-4-tert-Butylcyclohexyloxy)phenyl)piperidin-1-yl)propanoic acid], the negative logarithm of the IC50 (pIC50) at Human ATX protein was 5.00 to 5.30.

On to `CCCCCCCCOc1ccc(NC2CCCN(CCC(=O)O)C2)nc1` (centres unmarked) [Example 11, 3-(3-(5-(Octyloxy)pyridin-2-ylamino)piperidin-1-yl)propanoic acid], for which the pIC50 is < 5.30 on S1P1 (setting [2]), < 5.30 at S1P4 (setting [1]) and 5.00 to 5.30 on Human ATX protein.

Regarding `CC(C)(C)[C@H]1CC[C@H](Oc2ccc(NC3CCCN(CCC(=O)O)C3)nc2)CC1` (relative stereo) [Example 12, 3-(3-(5-(trans-4-tert-butylcyclohexyloxy)pyridin-2-ylamino)piperidin-1-yl)propanoic acid], the negative logarithm of the IC50 (pIC50) was < 5.30 at S1P1 (setting [2]), ≥ 5.70 on S1P4 (setting [1]) and < 5.00 on Human ATX protein.

The values are drawn from US9850206B2, “S1P and/or ATX modulating agents” (BIOGEN MA INC., priority 2012, dated 2017).
